The values below come from patent US10525021B2, “Mitochondrial uncouplers for treatment of metabolic diseases and cancer” (RUTGERS, THE STATE UNIVERSITY OF NEW JERSEY, priority 2014, dated 2020).

One test deals with mouse colon cancer cell line MC38. The experiment in a line: Clonogenic assay for cell proliferation inhibition (colony formation). The test is classed as cell-based. To be noted: MC-38, MC38 cells, treated 24-48 hrs, colonies counted after 2 weeks, read-out: IC50 concentrations (inhibition of colony formation). The method, then: Clonogenic assay for determining activity of cell proliferation inhibition: mouse colon cancer cell line MC38 was seeded onto 6-well plates at the density of about 200 cells per well, grown under medium conditions as described above, after attachment, cells were treated with ascending concentrations of example compounds for 24-48 hrs. The drug-containing medium was then removed and fresh medium without drug was added to each well. Cells were then grown for 2 weeks for colony formation. During the two weeks, old medium was aspirated out and fresh drug-free medium was added to the wells every two days. At the end of the experiment, the colonies were counted for the treatment at each concentration. IC50 is defined as the concentration that inhibits 50% of colony formation as compared to the no drug treatment control.
With `N#Cc1ccc(NC(=O)c2cc(Cl)ccc2OP(=O)(O)O)c(Cl)c1` [Compound 14, Sodium 4-chloro-2-((2-chloro-4-cyanophenyl)carbamoyl)phenyl phosphate], the IC50 is not above 10 µM.

Another test deals with AMPK. In words: AMPK activation analysis by immunoblotting with antibody against phosphorylated AMPK. The test is classed as cell-based. The following applies: two-hour treatment, phospho-AMPKα (Thr172) immunoblot. The method, then:
AMPK activation analysis by immunoblotting assay with antibody against phosphorylated AMPK: mouse pancreatic cancer cell line, Panc02, or NIH-3T3 fibroblasts, or human liver carcinoma cell line HepG2, were cultured in Dulbecco's modified Eagle's medium (DMEM) supplemented with 10% (vol/vol) fetal bovine serum, 100 unit·ml^−1 of penicillin, 100 μg·ml^−1 of streptomycin and 0.29 mg·ml^−1 of L-glutamine at 37° C. and 5% CO2. For treatment, individual compound was first dissolved in DMSO to make stock solution, and then was added directly to the culturing medium to desired concentration by at least 1:1000 dilution. After a two-hour treatment, cells were collected and homogenized within lysis buffer containing 10 mM TRIS-HCl (pH 7.9), 10% glycerol, 0.1 mM EDTA, 100 mM KCl, 0.2% NP-40, 0.5 mM PMSF, 1 mM DTT, mini-complete protease inhibitor cocktail (Roche, 11836153001), and phosphatase inhibitor cocktail (Roche, 04906845001) if required. Nuclei and insoluble debris were pelleted in an Eppendorf micro-centrifuge at 10,000 rpm for 5 min at 4° C. Cell extracts were then stored at −20° C. or immediately subjected to sodium dodecyl sulfate-polyacrylamide gel electrophoresis (SDS-PAGE). […] Quantification was determined by measuring band intensity using ImageJ software and calculating the ratio of protein of interesting to internal loading control. […]
(A western blot detects proteins with antibodies after separation by electrophoresis.)
`O=C(Nc1cnc(Br)cn1)c1cc(Cl)ccc1O` [Compound 2, N-(5-Bromopyrazin-2-yl)-5-chloro-2-hydroxybenzamide]: the “Concentrations for AMPK activation” value is given as “*** (<=10 μM)”.
Still for that read-out and setting: under `N#Cc1ccc(NC(=O)c2cc(Cl)ccc2OP(=O)(O)O)c(Cl)c1` [Compound 13, 4-Chloro-2-((2-chloro-4-cyanophenyl)carbamoyl)phenyl dihydrogen phosphate] stands “*** (<=10 μM)”.

A further test deals with NIH-3T3 cells, or HepG2 cells. The experiment in a line: Mitochondrial uncoupling activity assay (loss of mitochondrial TMRE staining in live cells). The test is classed as cell-based. To be noted: 2 h, read-out: Activities (mitochondrial uncoupling activity, EC50). Here is the method:
Mitochondrial uncoupling analyses in live cells were performed with cultured mammalian cells, the NIH-3T3 cells, or HepG2 cells. Cells were seeded onto 6-well plate and cultured in DMEM medium supplemented with 10% fetal bovine serum and 2 mM glutamine. Cells were allowed to grow to logarithmic growth phase prior to experiments. The cells were treated with each individual synthesized compound at various concentrations for two hours, followed by staining with TMRE (tetramethylrhodamine ethyl ester) at final concentration of 100 nM for 15 minutes. The cells were then washed once with PBS, and examined under fluorescence microscopy. A positive control of cells treated with various concentrations of niclosamide ethanolamine were used as positive control. Percentage of cells losing mitochondrial TMRE staining was used as a quantification of mitochondrial uncoupling activity.
On to `O=C(Nc1ccc(Cl)nn1)c1cc(Cl)ccc1O` [Compound 10, 5-Chloro-N-(6-chloropyridazin-3-yl)-2-hydroxybenzamide], for which the EC50 – broadly, the concentration at which the effect is half-maximal – lay in the range of 10 to 50 µM.
Same read-out and setting: under `N#Cc1ccc(NC(=O)c2cc(Cl)ccc2OP(=O)(O)O)c(Cl)c1` [Compound 13, 4-Chloro-2-((2-chloro-4-cyanophenyl)carbamoyl)phenyl dihydrogen phosphate] stands less than 10 µM; under `N#Cc1cnc(NC(=O)c2cc(Cl)ccc2O)c(Cl)n1` [Compound 4, 5-Chloro-N-(3-chloro-5-cyanopyrazin-2-yl)-2-hydroxybenzamide], more than 50 µM.
Turning to `N#Cc1cnc(NC(=O)c2cc(Cl)ccc2O)cn1` [Compound 3, 5-Chloro-N-(5-cyanopyrazin-2-yl)-2-hydroxybenzamide], the EC50 was less than 10 µM.
On the same count and under the same terms, under `O=C(Nc1nc2ccc(C(F)(F)F)cc2s1)c1cc(Cl)ccc1O` [Compound 31, 5-chloro-2-hydroxy-N-(6-(trifluoromethyl)benzo[d]thiazol-2-yl)benzamide] stands less than 10 µM; under `O=C(Nc1cccnn1)c1cc(Cl)ccc1O` [Compound 9, 5-Chloro-2-hydroxy-N-(pyridazin-3-yl)benzamide], more than 50 µM.
Regarding `O=C(Nc1cncnc1)c1cc(Cl)ccc1O` [Compound 5, 5-Chloro-2-hydroxy-N-(pyrimidin-5-yl)benzamide], the EC50 was more than 50 µM.
Still for that read-out and setting: the value for `O=C(Nc1nc2c(C(F)(F)F)cccc2s1)c1cc(Cl)ccc1O` [Compound 29, 5-Chloro-2-hydroxy-N-(4-(trifluoromethyl)benzo[d]thiazol-2-yl)benzamide] was less than 10 µM; that for `CCOP(=O)(O)Oc1ccc(Cl)cc1C(=O)Nc1ccc(C#N)cc1Cl` [Compound 12, 4-Chloro-2-((2-chloro-4-cyanophenyl)carbamoyl)phenyl ethyl hydrogen phosphate] was more than 50 µM.
On to `N#Cc1ccc(NC(=O)c2cc(Cl)ccc2O)nc1` [Compound 11, 5-Chloro-N-(5-cyanopyridin-2-yl)-2-hydroxybenzamide], for which the EC50 lay in the range of 10 to 50 µM.
On to `N#Cc1cnc(NC(=O)c2cc(Cl)ccc2OP(=O)(O)O)cn1` [Compound 19, 4-Chloro-2-((5-cyanopyrazin-2-yl)carbamoyl)phenyl dihydrogen phosphate], for which the EC50 is less than 10 µM.
On the same count and under the same terms, the value for `O=C(Nc1cnccn1)c1cc(Cl)ccc1O` [Compound 1, 5-Chloro-2-hydroxy-N-(pyrazin-2-yl)benzamide] was less than 10 µM.
On the same count and under the same terms, under `O=C(Nc1nc2c(F)cccc2s1)c1cc(Cl)ccc1O` [Compound 18, 5-Chloro-N-(4-fluorobenzo[d]thiazol-2-yl)-2-hydroxybenzamide] stands less than 10 µM.

The test is the same for the next values; noted with them: 2 h; two-hour treatment, TMRE 100 nM staining; concentration at which mitochondrial TMRE fluorescence is reduced to about 50%; read-out: Activities (mitochondrial uncoupling activity, EC50).
With `N#Cc1ncc(NC(=O)c2cc(Cl)ccc2O)cn1` [Compound 8, 5-Chloro-N-(2-cyanopyrimidin-5-yl)-2-hydroxybenzamide], the half-maximal effective concentration (EC50) was in the range of 10 to 50 µM.
The same measure, in the same setting: the value for `O=C(Nc1cnc(Br)cn1)c1cc(Cl)ccc1O` [Compound 2, N-(5-Bromopyrazin-2-yl)-5-chloro-2-hydroxybenzamide] was less than 10 µM.
Consider `N#Cc1ccc2nc(NC(=O)c3cc(Cl)ccc3O)sc2c1` [Compound 36, 5-chloro-N-(6-cyanobenzo[d]thiazol-2-yl)-2-hydroxybenzamide], for which the EC50 was less than 10 µM.
Still for that read-out and setting: the value for `O=C(Nc1cnc(Cl)nc1)c1cc(Cl)ccc1O` [Compound 7, 5-Chloro-N-(2-chloropyrimidin-5-yl)-2-hydroxybenzamide] was less than 10 µM; that for `O=C(Nc1ccc2scnc2c1)c1cc(Cl)ccc1O` [Compound 15, N-(Benzo[d]thiazol-5-yl)-5-chloro-2-hydroxybenzamide] was less than 10 µM.
As for `O=C(Nc1cnc(Cl)nc1Cl)c1cc(Cl)ccc1O` [Compound 6, 5-Chloro-N-(2,4-dichloropyrimidin-5-yl)-2-hydroxybenzamide], the EC50 is more than 50 µM.
Same read-out and setting: the value for `O=C(Nc1ccc2nccnc2c1)c1cc(Cl)ccc1O` [Compound 22, 5-Chloro-2-hydroxy-N-(quinoxalin-6-yl)benzamide] was 10 to 50 µM.
Same read-out and setting: under `O=C(Nc1ccc2ccncc2c1)c1cc(Cl)ccc1O` [Compound 21, 5-Chloro-2-hydroxy-N-(isoquinolin-7-yl)benzamide] stands 10 to 50 µM; under `O=C(Nc1cnc(C(F)(F)F)cn1)c1cc(Cl)ccc1O` [Compound 35, 5-chloro-2-hydroxy-N-(5-(trifluoromethyl)pyrazin-2-yl)benzamide], less than 10 µM.
Still for that read-out and setting: the value for `N#Cc1cnc(NC(=O)c2cc(Cl)ccc2O)s1` [Compound 16, 5-chloro-N-(5-cyanothiazol-2-yl)-2-hydroxybenzamide] was less than 10 µM.
